Laboratory results published in USRE42890E1, “Furazanobenzimidazoles” (Basilea Pharmaceutica AG, priority 2003, dated 2011).

Experiments:
[1] = system: adherent cells or suspension cells; test: Hoechst 33342 nuclear staining (fraction of apoptotic nuclei); format: cell-based; design: key: 0 relating to no activity; 1 relating to weak activity comprising less than 70% of the cells; score 2 relating to strong activity comprising more than 70% of the cells
HeLa [2] = test: MTS proliferation assay, HeLa; format: cell-based, human; conditions: 72 h incubation, read-out: MTS proliferation assay IC 50 HeLa
Procedure, shortened: (§1)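 Absorbance at 492 nm after 3 h with MTS reagent gave proliferation. This followed 72 h compound exposure (final 0.3, 1, 3, 10 μM) at 37 °C and 7.5% CO2. Cells had been plated 24 h earlier in complete RPMI-1640 with 5% or 10% FCS.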

MRC5 = test: MTS proliferation assay, MRC5; format: cell-based; conditions: MRC5, 72 h incubation; read-out: MTS proliferation assay IC 50 MRC5
Procedure, shortened: (§2)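 Antiproliferative read-out by MTS (3 h, A492) after 72 h compound exposure at final 0.3–10 μM (four concentrations). Cells were plated 24 h earlier in RPMI-1640 containing 5% or 10% FCS, cultured at 37 °C with 7.5% CO2.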

HeLa [3] = test: PI staining for cell cycle distribution, HeLa; format: cell-based, human; design: key: 0: no effect; 1: weak effect; 2: strong effect; conditions: HeLa 10 μM, 24 h; for PI staining for cell cycle distribution, G2M: cell population arrested in G2M phase; for PI staining for cell cycle distribution, subG1: subG1 peak indicative for DNA fragmentation
Experimental: (§3) Cell lines are cultured in RPMI-1640 tissue culture medium containing either 5% or 10% fetal calf serum, 0.05 mM 2-mercaptoethanol, 2 mM glutamine and penicillin/streptomycin 50 μg/ml (complete medium) (Sigma, Buchs, Switzerland). General growth conditions are 37° C. and 7.5% CO2.
(§4) The following human cell lines (either EGFP transfected or not) are being used: HeLa (ATCC: CCL-2), KB (ATCC: CCL-17), MCF7 (ATCC: HTB-22), SK-BR-3 (ATCC: HTB-30), SK-Mel 1 (ATCC: HTB-67), SK-Mel 28 (ATCC: HTB-72), PC-3 (ATCC: CRL-1435), SW 480 (ATCC: CCL-228), NCl-H460 (ATCC: HTB-177), NCl-H1792 (ATCC: CRL-5895), HT1080 (ATCC: CCL-21), Jurkat (ATCC: TIB-152), Ramos (ATCC: CRL-1596), Raji (ATCC: CCL-86), H9 (ATCC: HTB-176), Hut78 (ATCC: TIB-161), K562 (ATCC: CCL 243), HL-60 (ATCC: CCL 240), U-87MG (ATCC: HTB-14), HepG2 (ATCC: HB-8065), U-2 OS (ATCC: HTB-96), Saos-2 (ATCC: HTB-85), U937 (ATCC: CRL 1593), Hs 578T (ATCC: HTB 126), HBL-100 (ATCC: HTB 124), Molt-4 (ATCC: CRL 1582).
(§5) 1-2*10^5 cells are seeded into 24 well tissue culture plates and incubated for 24 h prior to compound addition. Compounds are added for 24 h in a final concentration of 3 μM or 10 μM. Adherent cells are harvested by trypsinization. The cell suspensions are fixed by adding 2 parts ice cold ethanol 100% while vortexing. Then the samples are stored for >2 h at −20° C. Subsequently the cells are washed with PBS once and resuspended in 250 μl PBS containing 50 μg/ml PI (Calbiochem # 537059), then the samples are incubated at 37° C. for 30 minutes and subsequently analyzed on a FACSCalibur™ monitoring linear PI fluorescence activity on FL2. The readout allows the detection of a possible direct or indirect influence of the tested compounds on the cell cycle. The following events can occur: a) Generation of a subG1 peak indicative for DNA fragmentation, b) increase of the cell population arrested in G2M phase. Both events are scored by 1 for weak and 2 for strong occurrence. 0 indicates no occurrence at all.

Jurkat [4] = test: MTS proliferation assay, Jurkat; format: cell-based, human; conditions: 72 h incubation, read-out: MTS proliferation assay IC 50 Jurkat
Procedure, shortened: as §1

Jurkat [5] = test: PI staining for cell cycle distribution, Jurkat; format: cell-based, human; design: key: 0: no effect; 1: weak effect; 2: strong effect; conditions: Jurkat 3 μM, 24 h; for PI staining for cell cycle distribution, G2M: cell population arrested in G2M phase; for PI staining for cell cycle distribution, subG1: subG1 peak indicative for DNA fragmentation
Experimental: as §3, §4, §5

Jily = test: MTS proliferation assay, Jily; format: cell-based; conditions: 72 h incubation, read-out: MTS proliferation assay IC 50 Jily
Procedure, shortened: as §2

HT1080 = test: MTS proliferation assay, HT1080; format: cell-based, human; conditions: HT1080, 72 h incubation; read-out: MTS proliferation assay IC 50 HT1080
Procedure, shortened: as §1

| IC50 (HeLa [2]) | SMILES | Hoechst 33342 nuclear staining score ([1]; H460, conc 0.01 μm) | Hoechst 33342 nuclear staining score ([1]; H460, conc 0.1 μm) | Hoechst 33342 nuclear staining score ([1]; H460, conc 1 μm) | Hoechst 33342 nuclear staining score ([1]; HeLa, conc 0.01 μm) | Hoechst 33342 nuclear staining score ([1]; HeLa, conc 0.1 μm) | Hoechst 33342 nuclear staining score ([1]; HeLa, conc 1 μm) | Hoechst 33342 nuclear staining score ([1]; Jily, conc 0.01 μm) | Hoechst 33342 nuclear staining score ([1]; Jily, conc 0.1 μm) | Hoechst 33342 nuclear staining score ([1]; Jily, conc 1 μm) | Hoechst 33342 nuclear staining score ([1]; Jurkat, conc 0.01 μm) | Hoechst 33342 nuclear staining score ([1]; Jurkat, conc 0.1 μm) | Hoechst 33342 nuclear staining score ([1]; Jurkat, conc 1 μm) | Hoechst 33342 nuclear staining score ([1]; MRC5, conc 0.01 μm) | Hoechst 33342 nuclear staining score ([1]; MRC5, conc 0.1 μm) | Hoechst 33342 nuclear staining score ([1]; MRC5, conc 1 μm) | Hoechst 33342 nuclear staining score ([1]; PBLs, conc 0.01 μm) | Hoechst 33342 nuclear staining score ([1]; PBLs, conc 0.1 μm) | Hoechst 33342 nuclear staining score ([1]; PBLs, conc 1 μm) | IC50 (MRC5) | also measured |
| --- | --- | --- | --- | --- | --- | --- | --- | --- | --- | --- | --- | --- | --- | --- | --- | --- | --- | --- | --- | --- | --- |
| 100 to 1000 nM | COc1ccc(C(=O)Cn2c(-c3nonc3N)nc3ccccc32)cc1 [Example 19] | 0 | 0 | 2 (score 2 relating to strong activity comprising more than 70% of the cells) | 0 | 1 (1 relating to weak activity comprising less than 70% of the cells) | 2 (score 2 relating to strong activity comprising more than 70% of the cells) | 0 | 2 (score 2 relating to strong activity comprising more than 70% of the cells) | 2 (score 2 relating to strong activity comprising more than 70% of the cells) | 0 | 2 (score 2 relating to strong activity comprising more than 70% of the cells) | 2 (score 2 relating to strong activity comprising more than 70% of the cells) | 0 | 0 | 2 (score 2 relating to strong activity comprising more than 70% of the cells) | 0 | 0 | 0 | 100 to 1000 nM | PI staining for cell cycle distribution, G2M (HeLa [3]): 2; PI staining for cell cycle distribution, subG1 (HeLa [3]): 0; IC50 (Jurkat [4]): 10 to 100 nM; PI staining for cell cycle distribution, G2M (Jurkat [5]): 0; PI staining for cell cycle distribution, subG1 (Jurkat [5]): 0 |
| 100 to 1000 nM | Nc1nonc1-c1nc2ccccc2n1CC(=O)c1ccc(Cl)cc1 [Example 16] | 0 | 2 (score 2 relating to strong activity comprising more than 70% of the cells) | 2 (score 2 relating to strong activity comprising more than 70% of the cells) | 0 | 2 (score 2 relating to strong activity comprising more than 70% of the cells) | 2 (score 2 relating to strong activity comprising more than 70% of the cells) | 0 | 2 (score 2 relating to strong activity comprising more than 70% of the cells) | 2 (score 2 relating to strong activity comprising more than 70% of the cells) | 0 | 2 (score 2 relating to strong activity comprising more than 70% of the cells) | 2 (score 2 relating to strong activity comprising more than 70% of the cells) | 0 | 2 (score 2 relating to strong activity comprising more than 70% of the cells) | 2 (score 2 relating to strong activity comprising more than 70% of the cells) | 0 | 0 | 0 | 10 to 100 nM | IC50 (Jily): 10 to 100 nM; PI staining for cell cycle distribution, G2M (HeLa [3]): 2; PI staining for cell cycle distribution, subG1 (HeLa [3]): 0; IC50 (Jurkat [4]): 100 to 1000 nM; PI staining for cell cycle distribution, G2M (Jurkat [5]): 0; PI staining for cell cycle distribution, subG1 (Jurkat [5]): 0; IC50 (HT1080): 10 to 100 nM |
| 100 to 1000 nM | CON=C(Cn1c(-c2nonc2N)nc2ccccc21)c1ccc(Br)cc1 (mixture of isomers) [Example 30] | 0 | 0 | 0 | 0 | 0 | 1 (1 relating to weak activity comprising less than 70% of the cells) | 0 | 0 | 1 (1 relating to weak activity comprising less than 70% of the cells) | 0 | 0 | 2 (score 2 relating to strong activity comprising more than 70% of the cells) | 0 | 0 | 2 (score 2 relating to strong activity comprising more than 70% of the cells) | 0 | 0 | 0 | 100 to 1000 nM | PI staining for cell cycle distribution, G2M (HeLa [3]): 2; PI staining for cell cycle distribution, subG1 (HeLa [3]): 0; IC50 (Jurkat [4]): 100 to 1000 nM; PI staining for cell cycle distribution, G2M (Jurkat [5]): 0; PI staining for cell cycle distribution, subG1 (Jurkat [5]): 0 |
| 10 to 100 nM | Nc1nonc1-c1nc2ccccc2n1CC(=O)c1ccc(Br)cc1 [Example 29] | 0 | 0 | 2 (score 2 relating to strong activity comprising more than 70% of the cells) | 0 | 1 (1 relating to weak activity comprising less than 70% of the cells) | 2 (score 2 relating to strong activity comprising more than 70% of the cells) | 0 | 2 (score 2 relating to strong activity comprising more than 70% of the cells) | 2 (score 2 relating to strong activity comprising more than 70% of the cells) | 0 | 2 (score 2 relating to strong activity comprising more than 70% of the cells) | 2 (score 2 relating to strong activity comprising more than 70% of the cells) | 0 | 2 (score 2 relating to strong activity comprising more than 70% of the cells) | 2 (score 2 relating to strong activity comprising more than 70% of the cells) | 0 | 0 | 0 | 10 to 100 nM | PI staining for cell cycle distribution, G2M (HeLa [3]): 2; PI staining for cell cycle distribution, subG1 (HeLa [3]): 0; IC50 (Jurkat [4]): 10 to 100 nM; PI staining for cell cycle distribution, G2M (Jurkat [5]): 0; PI staining for cell cycle distribution, subG1 (Jurkat [5]): 0 |
